Results on 85 compounds are retold here after the OPERA property sets (Mansouri et al. 2018).

By logP is commonly meant a log measure of how a compound divides between an organic and an aqueous phase. Higher therefore signals a more lipophilic compound. Compound `O=C(c1ccc2n1CCC2C(=O)O)C1CCC1` (stereo not given) gave a lipophilicity (logP) of 2.41.
`Cc1ccc(S(=O)(=O)NC(=O)NC2CCCCC2)cc1` yielded a log partition coefficient (logP) of 2.9.
To `O=C(O)Cc1cccc2ccccc12` belongs 2.24; to `CCN1CCCCC1`, 1.75.
To `CC(=O)Oc1cc(OC(C)CCCc2ccccc2)cc2c1C1CC(O)CCC1C(C)N2C` (stereo not given) belongs 5.72; to `O=c1c2ccccc2nc2n1CCC2`, 1.07; to `CCN1CC(C(O)C(CC2CCCCC2)NC(=O)C(Cc2cc[nH]n2)NC(=O)C(CC(=O)N2CCOCC2)Cc2ccccc2)OC1=O` (stereo not given), 2.49.
To `C=CCC(NC(=O)C(Cc1ccccc1)NS(=O)(=O)N1CCN(C)CC1)C(=O)NC(CC1CCCCC1)C(=O)C(F)(F)C(=O)NCCN1CCOCC1` (stereo not given) belongs 2.73; to `Cc1ccc(O)c(CO)c1`, 0.97; to `Nc1ccc(O)c2ncccc12`, -0.11.
Consider `CCOP(=O)(Cc1ccc(-c2nc3ccccc3s2)cc1)OCC`, for which the logP amounted to 3.5.
The same measure for `O=C(c1cccc(C(F)(F)F)c1)c1ccc2n1CCC2C(=O)O` (stereo not given): 3.69; for `O=c1[nH]c2ccccc2cc1-c1ccccc1`: 2.99; for `COC(=O)C1C(C=C2CCSC2=O)C1(C)C` (stereo not given): 2.33.
The same measure for `COc1ccc(C(O)(Cn2ccnc2)c2ccc(-c3ccncc3)cc2)cc1` (stereo not given): 3.55.
To `CCCCCCCCC(C)(C)c1ccc(C2CCCC(O)C2)c(O)c1` (stereo not given) belongs 8.16; to `OC(Cn1ccnc1)(c1ccc(Cl)cc1)c1ccc(-c2ccncc2)cc1` (stereo not given), 3.27; to `c1ccc(-c2cnc3ccccc3n2)cc1`, 3.48.
`Nc1nc2c(ncn2C2OC(CO)C(O)C2O)c(=O)[nH]1` (stereo not given): the logP was -1.9.
The same measure for `CCCOc1cc(Br)c(Cc2cnc(N)nc2N)cc1OC`: 2.84; for `CCCCCCCCCCC(=O)O`: 4.42.
The same measure for `Nc1ccc(S(=O)(=O)Nc2ccc([N+](=O)[O-])cc2)cc1`: 2.14; for `COC(=O)CCC(C)=O`: -0.13; for `O=C1c2ccccc2C(=O)C1c1ccc(Cl)cc1`: 3.61.
The same measure for `CNC(=O)NS(=O)(=O)c1ccc(Cl)cc1`: 1.16; for `CCCn1c(=O)n(C)c(=O)c2nc[nH]c21`: 1.02; for `CC(=O)OCC1=C(C(=O)OCOC(=O)C(C)(C)C)N2C(=O)C(NC(=O)Cc3cccs3)C2SC1` (stereo not given): 1.57.
Regarding `CC1(C)CC(=O)CC(C)(C)N1O`, the log partition coefficient (logP) was 0.12.
The compound `COc1ccc(CC(C)N)cc1OC` (stereo not given) registered a log partition coefficient (logP) of 1.2.
On to `CCNCc1ccccc1`, for which the logP amounted to 1.82.
For `CNCCc1ccccc1`, the logP came to 1.91.
The same measure for `O=C1C(Nc2ccccc2)=C(S(=O)(=O)c2ccccc2)C(=O)c2ccccc21`: 3.38; for `NC(=O)c1ccccc1OCc1ccc([N+](=O)[O-])cc1`: 1.73.
The same measure for `CCC1OC(=O)C(C)C(OC2CC(C)(OC)C(OC=O)C(C)O2)C(C)C(OC2OC(C)CC(N(C)C)C2O)C(C)(O)CC(C)C(=O)C(C)C(O)C1(C)O` (stereo not given): 2.64.
The same measure for `CC(=O)OC(C(=O)ON=C(C)C12CC3CC(CC(C3)C1)C2)c1ccccc1` (stereo not given): 5.89; for `COC(=O)/C=C/Oc1ccccc1`: 2.68.
`O=[N+]([O-])O[C@@H]1CO[C@H]2[C@@H]1OC[C@@H]2O`: the logP was -0.15.
To `Cc1ccccc1NC1=NCCN1` belongs 1.28; to `CNC1CC2CC1c1ccccc12` (stereo not given), 2.32.
To `C=C(C)C(=O)OCc1ccccc1` belongs 2.53.
For the compound `CCCCCCC(C)=NNC(=N)N`, the logP was determined as 2.08.
To `Nc1ncnc2c1ncn2[C@H]1CC[C@@H](CO)O1` belongs -0.25.
The same measure for `Nc1nc(-c2ccccn2)cc2ccccc12`: 2.74; for `Cc1ncsc1CCCl`: 2.12; for `COc1ccc(CCNCC(O)COc2ccc(COCc3ncc[nH]3)cc2)cc1OC` (stereo not given): 1.29.
`CC(=O)Nc1ccccc1C(N)=O`: the lipophilicity (logP) was determined as 0.32.
Regarding `c1ccc(-c2nc3ccccc3o2)cc1`, the logP stood at 3.67.
On to `CCN(CC)C(C)CCCC(=O)Nc1c(C)cccc1C` (stereo not given), for which the lipophilicity (logP) is 2.64.
To `CC(C)N1C(=O)SC(=Cc2ccc([N+](=O)[O-])o2)C1=O` belongs 2.42; to `CCCCCCCCCCCCCc1cccc(O)c1`, 8.84.
The same measure for `CCOP(=O)(NC)ON=C(C#N)c1ccc(Cl)cc1` (stereo not given): 2.5; for `CCC(C(=O)OCc1ccc(C)cc1)C(COC(=O)c1ccccc1)Cc1cncn1C` (stereo not given): 4.85; for `Cc1cccc(N=C2NCCN2)c1Cl`: 1.83.
To `O=[N+]([O-])c1cnc(N=C2NCCO2)s1` belongs 0.57; to `CCN1CC(C(O)C(CC2CCCCC2)NC(=O)C(Cc2cnc[nH]2)NC(=O)C(Cc2ccc(OC)cc2)NC(=O)N2CC(O)C(O)C2)OC1=O` (stereo not given), 1.22.
In turn, `CCCCCCCCCCCCCCCC(=O)O` yielded a logP of 7.17.
To `c1ccc(C2CCCN2)cc1` (stereo not given) belongs 1.89; to `O=C1CC(c2ccccc2)c2ccccc2N1` (stereo not given), 2.79; to `O=C(c1ccc(Cl)cc1Cl)c1ccc2n1CCC2C(=O)O` (stereo not given), 3.56.
In turn, `OCC1c2ccccc2-c2ccccc21` displayed a log partition coefficient (logP) of 2.89.
To `Cc1c(Br)cccc1N=C1NCCN1` belongs 1.94; to `C=CC1CCC2OC2C1` (stereo not given), 2.08.
The same measure for `[O-][n+]1ccc(NO)c2ccccc21`: 0.
The same measure for `Cc1cn([C@H]2CC[C@@H](CO)O2)c(=O)[nH]c1=O`: -0.6; for `O=C(OOC(=O)c1ccccc1)c1ccccc1`: 3.46; for `Cc1cc(Br)cc(C(N)=O)c1O`: 2.76.
For the compound `CNC(Cc1ccccc1)Cc1ccccc1`, the logP was determined as 3.8.
To `CCCCNC(=O)NCCNCC(O)COc1ccc(-c2ncc(C)[nH]2)cc1` (stereo not given) belongs 1.24; to `CCNc1nc(Cl)nc(NC2CC2)n1`, 2.17; to `O=C(COc1ccc(OCCNCC(O)COc2ccccc2)cc1)N1CCc2ccccc2C1` (stereo not given), 3.6.
The same measure for `CC(=O)c1c(O)c(C)c(O)c2c1OC1=CC(=O)C(C(C)=O)C(=O)C12C` (stereo not given): 2.88; for `Oc1ccc2cc(O)ccc2c1`: 1.9; for `C=Cc1ccc(C(=O)O)cc1`: 2.18.
Take `CC(C)(C)c1cc(C2C(=O)c3ccccc3C2=O)cc(C(C)(C)C)c1`: the log partition coefficient (logP) stood at 6.86.
To `COC(=O)Nc1ccc(Cl)c(Cl)c1` belongs 3.32; to `Nc1nc2c(ncn2COC(CO)CO)c(=O)[nH]1`, -1.66; to `Brc1cccc(N=C2NCCN2)c1Br`, 2.16.
`CCCCCCCCCCCC(=O)O` yielded a lipophilicity (logP) of 4.6.
To `O=[N+]([O-])c1cn(CCN2CCOCC2)cn1` belongs -0.38.
The same measure for `CC(N)CC1CCCCCCC1` (stereo not given): 3.7; for `CCC(C(=O)OCc1ccc(C)cc1)C(COC(=O)C(C)(C)C)Cc1cncn1C` (stereo not given): 4.55.
The same measure for `CCc1cccc(C2C(=O)c3ccccc3C2=O)c1`: 3.92; for `CSC(C)=NOC(=O)N(C)SN(C)C(C)=O`: 1.3.
In turn, `N#Cc1ccc(C[Se]CCC(=O)O)cc1` returned a logP of 1.37.
The same measure for `CCC(C(=O)OCc1ccc(Cl)cc1)C(COC(=O)c1ccccc1)Cc1cncn1C` (stereo not given): 4.9.
